In the NIST ThermoML archive (doi:10.1016/j.jct.2018.08.013):
Several values for one entry are separate records, joined by “and”; a condition that tells them apart may be missing. Identical values can stand only once.

Columns and labels:
[1] = xn = mol fraction of the nth substance listed; details: 298 K; 100 kPa; Crystal of intercomponent compound 1; X-ray diffraction; x2 = 0.493
[2] = specific heat capacity at constant pressure; xn = mol fraction of the nth substance listed; details: 100 kPa, Crystal of intercomponent compound 1, x2 = 0.493

[S] [sulfur] + [Ga]
Details	mass density [kg/m3]
[1]	3910

[2]
Details	specific heat capacity
18.16 K, relaxation calorimetry	12.05 J/K/kg
18.18 K, relaxation calorimetry	12.12 J/K/kg
20.17 K, relaxation calorimetry	16.52 J/K/kg
20.2 K, relaxation calorimetry	16.6 J/K/kg
22.19 K, relaxation calorimetry	21.61 J/K/kg
22.22 K, relaxation calorimetry	21.71 J/K/kg and 21.72 J/K/kg
24.21 K, relaxation calorimetry	27.33 J/K/kg
24.24 K, relaxation calorimetry	27.43 J/K/kg and 27.44 J/K/kg
26.24 K, relaxation calorimetry	33.49 J/K/kg
26.26 K, relaxation calorimetry	33.58 J/K/kg
28.24 K, relaxation calorimetry	39.83 J/K/kg
28.26 K, relaxation calorimetry	39.94 J/K/kg
28.27 K, relaxation calorimetry	39.95 J/K/kg
30.29 K, relaxation calorimetry	46.52 J/K/kg and 46.51 J/K/kg
35.28 K, relaxation calorimetry	63.34 J/K/kg
35.34 K, relaxation calorimetry	63.61 J/K/kg and 63.51 J/K/kg
40.32 K, relaxation calorimetry	80.08 J/K/kg
40.39 K, relaxation calorimetry	80.21 J/K/kg
40.4 K, relaxation calorimetry	80.32 J/K/kg
45.38 K, relaxation calorimetry	96.1 J/K/kg
45.44 K, relaxation calorimetry	96.06 J/K/kg
45.46 K, relaxation calorimetry	96.26 J/K/kg
50.44 K, relaxation calorimetry	111.7 J/K/kg
50.47 K, relaxation calorimetry	111.6 J/K/kg
50.51 K, relaxation calorimetry	111.7 J/K/kg
55.47 K, relaxation calorimetry	126.24 J/K/kg
55.51 K, relaxation calorimetry	125.95 J/K/kg
55.55 K, relaxation calorimetry	126.24 J/K/kg
60.51 K, relaxation calorimetry	140.09 J/K/kg
60.55 K, relaxation calorimetry	139.99 J/K/kg
60.58 K, relaxation calorimetry	139.99 J/K/kg
65.57 K, relaxation calorimetry	154.14 J/K/kg
65.59 K, relaxation calorimetry	154.04 J/K/kg
65.63 K, relaxation calorimetry	154.04 J/K/kg
70.62 K, relaxation calorimetry	167.6 J/K/kg
70.63 K, relaxation calorimetry	167.6 J/K/kg
70.66 K, relaxation calorimetry	167.5 J/K/kg
75.65 K, relaxation calorimetry	180.57 J/K/kg
75.68 K, relaxation calorimetry	180.86 J/K/kg
75.7 K, relaxation calorimetry	180.47 J/K/kg
80.7 K, relaxation calorimetry	194.32 J/K/kg
80.73 K, relaxation calorimetry	194.42 J/K/kg
80.74 K, relaxation calorimetry	194.32 J/K/kg
85.74 K, relaxation calorimetry	207.39 J/K/kg
85.77 K, relaxation calorimetry	207.39 J/K/kg
85.78 K, relaxation calorimetry	207.39 J/K/kg
90.77 K, relaxation calorimetry	220.55 J/K/kg
90.8 K, relaxation calorimetry	220.26 J/K/kg and 220.45 J/K/kg
95.75 K, relaxation calorimetry	232.24 J/K/kg
95.79 K, relaxation calorimetry	231.95 J/K/kg
95.82 K, relaxation calorimetry	231.85 J/K/kg
100.8 K, relaxation calorimetry	243.64 J/K/kg
100.86 K, relaxation calorimetry	242.85 J/K/kg
100.91 K, relaxation calorimetry	243.05 J/K/kg
106.88 K, relaxation calorimetry	257.1 J/K/kg and 257.39 J/K/kg
107.03 K, relaxation calorimetry	256.21 J/K/kg
113.66 K, relaxation calorimetry	272.42 J/K/kg
113.82 K, relaxation calorimetry	273.11 J/K/kg
113.94 K, relaxation calorimetry	271.54 J/K/kg
120.64 K, relaxation calorimetry	286.47 J/K/kg
120.83 K, relaxation calorimetry	286.96 J/K/kg
120.89 K, relaxation calorimetry	285.1 J/K/kg
127.82 K, relaxation calorimetry	298.56 J/K/kg
127.84 K, relaxation calorimetry	298.36 J/K/kg
134.78 K, relaxation calorimetry	310.93 J/K/kg
134.8 K, relaxation calorimetry	310.34 J/K/kg
134.81 K, relaxation calorimetry	310.25 J/K/kg
141.61 K, relaxation calorimetry	324 J/K/kg
141.75 K, relaxation calorimetry	322.43 J/K/kg
141.83 K, relaxation calorimetry	321.94 J/K/kg
148.61 K, relaxation calorimetry	333.53 J/K/kg
148.72 K, relaxation calorimetry	332.15 J/K/kg
148.84 K, relaxation calorimetry	330.48 J/K/kg
155.54 K, relaxation calorimetry	342.37 J/K/kg
155.64 K, relaxation calorimetry	340.7 J/K/kg
155.72 K, relaxation calorimetry	339.33 J/K/kg
162.61 K, relaxation calorimetry	350.82 J/K/kg
162.66 K, relaxation calorimetry	349.74 J/K/kg
162.73 K, relaxation calorimetry	349.64 J/K/kg
169.57 K, relaxation calorimetry	360.25 J/K/kg
169.65 K, relaxation calorimetry	358.19 J/K/kg
169.72 K, relaxation calorimetry	359.07 J/K/kg
176.58 K, relaxation calorimetry	367.72 J/K/kg
176.67 K, relaxation calorimetry	367.72 J/K/kg
176.69 K, relaxation calorimetry	362.51 J/K/kg
183.46 K, relaxation calorimetry	377.05 J/K/kg
183.56 K, relaxation calorimetry	375.87 J/K/kg
183.6 K, relaxation calorimetry	370.67 J/K/kg
190.49 K, relaxation calorimetry	383.83 J/K/kg
190.59 K, relaxation calorimetry	383.53 J/K/kg
190.65 K, relaxation calorimetry	378.13 J/K/kg
197.48 K, relaxation calorimetry	388.94 J/K/kg
197.53 K, relaxation calorimetry	389.63 J/K/kg
197.63 K, relaxation calorimetry	385.2 J/K/kg
204.39 K, relaxation calorimetry	394.64 J/K/kg
204.41 K, relaxation calorimetry	396.21 J/K/kg
204.53 K, relaxation calorimetry	392.18 J/K/kg
211.42 K, relaxation calorimetry	400.83 J/K/kg
211.46 K, relaxation calorimetry	401.71 J/K/kg
211.56 K, relaxation calorimetry	397.19 J/K/kg
218.3 K, relaxation calorimetry	405.64 J/K/kg
218.34 K, relaxation calorimetry	407.41 J/K/kg
218.45 K, relaxation calorimetry	402.99 J/K/kg
225.38 K, relaxation calorimetry	410.35 J/K/kg and 412.32 J/K/kg
225.51 K, relaxation calorimetry	408.68 J/K/kg
232.24 K, relaxation calorimetry	414.68 J/K/kg and 416.64 J/K/kg
232.38 K, relaxation calorimetry	412.81 J/K/kg
239.31 K, relaxation calorimetry	418.61 J/K/kg and 420.57 J/K/kg
239.44 K, relaxation calorimetry	416.94 J/K/kg
246.17 K, relaxation calorimetry	422.44 J/K/kg
246.31 K, relaxation calorimetry	420.96 J/K/kg
253.25 K, relaxation calorimetry	426.56 J/K/kg
253.26 K, relaxation calorimetry	424.99 J/K/kg
253.37 K, relaxation calorimetry	424.7 J/K/kg
260.11 K, relaxation calorimetry	428.53 J/K/kg and 430.1 J/K/kg
260.22 K, relaxation calorimetry	427.94 J/K/kg
260.51 K, Extra sensitive DSC	429.81 J/K/kg
263.12 K, Extra sensitive DSC	432.26 J/K/kg
265.73 K, Extra sensitive DSC	432.66 J/K/kg
267.18 K, relaxation calorimetry	432.16 J/K/kg and 433.25 J/K/kg
267.28 K, relaxation calorimetry	431.28 J/K/kg
268.33 K, Extra sensitive DSC	434.33 J/K/kg
270.07 K, Extra sensitive DSC	435.41 J/K/kg
273.54 K, Extra sensitive DSC	436.78 J/K/kg
274.03 K, relaxation calorimetry	435.6 J/K/kg and 437.27 J/K/kg
274.12 K, relaxation calorimetry	434.33 J/K/kg
276.15 K, Extra sensitive DSC	437.37 J/K/kg
279.62 K, Extra sensitive DSC	439.04 J/K/kg
281.12 K, relaxation calorimetry	440.32 J/K/kg
281.13 K, relaxation calorimetry	440.12 J/K/kg
281.19 K, relaxation calorimetry	438.35 J/K/kg
283.09 K, Extra sensitive DSC	440.42 J/K/kg
285.7 K, Extra sensitive DSC	441.4 J/K/kg
287.94 K, relaxation calorimetry	442.87 J/K/kg
287.95 K, relaxation calorimetry	442.09 J/K/kg
288.02 K, relaxation calorimetry	441.2 J/K/kg
289.17 K, Extra sensitive DSC	442.77 J/K/kg
292.64 K, Extra sensitive DSC	444.15 J/K/kg
295 K, relaxation calorimetry	443.07 J/K/kg and 444.35 J/K/kg
295.08 K, relaxation calorimetry	443.46 J/K/kg
295.25 K, Extra sensitive DSC	444.64 J/K/kg
297.85 K, Extra sensitive DSC	445.72 J/K/kg
300.45 K, Extra sensitive DSC	446.61 J/K/kg
301.99 K, relaxation calorimetry	450.73 J/K/kg
302 K, relaxation calorimetry	450.83 J/K/kg
302.09 K, relaxation calorimetry	445.23 J/K/kg
303.06 K, Extra sensitive DSC	447.88 J/K/kg
305.66 K, Extra sensitive DSC	448.77 J/K/kg
308.26 K, Extra sensitive DSC	449.75 J/K/kg
310.87 K, Extra sensitive DSC	450.44 J/K/kg
313.47 K, Extra sensitive DSC	451.52 J/K/kg
315.21 K, Extra sensitive DSC	452.11 J/K/kg
317.81 K, Extra sensitive DSC	452.3 J/K/kg
320.41 K, Extra sensitive DSC	453.09 J/K/kg
323.02 K, Extra sensitive DSC	453.29 J/K/kg
325.62 K, Extra sensitive DSC	454.17 J/K/kg
328.23 K, Extra sensitive DSC	455.45 J/K/kg
329.96 K, Extra sensitive DSC	455.35 J/K/kg
332.56 K, Extra sensitive DSC	455.84 J/K/kg
335.17 K, Extra sensitive DSC	456.53 J/K/kg
337.77 K, Extra sensitive DSC	457.22 J/K/kg
340.38 K, Extra sensitive DSC	458.2 J/K/kg
342.98 K, Extra sensitive DSC	459.18 J/K/kg
345.58 K, Extra sensitive DSC	459.28 J/K/kg
348.19 K, Extra sensitive DSC	460.46 J/K/kg
350.79 K, Extra sensitive DSC	461.15 J/K/kg
353.39 K, Extra sensitive DSC	460.75 J/K/kg
356 K, Extra sensitive DSC	461.93 J/K/kg
358.6 K, Extra sensitive DSC	462.72 J/K/kg
